Measured values: PMC12155096 (International Journal of Molecular Sciences, 2025)
Where a name gives a salt, the structure may show the parent alone. Read-outs that look alike come from different tables or passages of the source.

Experiments:
human CYP1A2 = target: T1, human CYP1A2 (Homo sapiens, UniProt P05177); assay: biochemical
T1 sequence (P05177 1-516): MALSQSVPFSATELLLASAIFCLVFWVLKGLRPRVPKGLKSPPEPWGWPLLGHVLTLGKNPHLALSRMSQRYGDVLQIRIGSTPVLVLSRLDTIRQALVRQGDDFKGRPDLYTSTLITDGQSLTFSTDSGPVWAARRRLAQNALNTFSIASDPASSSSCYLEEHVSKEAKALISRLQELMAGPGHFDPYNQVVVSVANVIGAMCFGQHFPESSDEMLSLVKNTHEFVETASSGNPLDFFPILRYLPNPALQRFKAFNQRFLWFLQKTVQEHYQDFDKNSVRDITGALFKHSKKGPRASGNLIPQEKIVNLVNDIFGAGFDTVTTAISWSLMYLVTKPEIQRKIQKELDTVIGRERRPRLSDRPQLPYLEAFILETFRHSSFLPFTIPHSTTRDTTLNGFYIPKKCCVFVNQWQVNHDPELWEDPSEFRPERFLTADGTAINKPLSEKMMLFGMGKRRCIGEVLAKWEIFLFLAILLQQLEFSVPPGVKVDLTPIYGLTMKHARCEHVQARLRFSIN

human CYP2D6 = human CYP2D6 (Homo sapiens, UniProt P10635)
human CYP2D6, sequence (P10635 whole entry): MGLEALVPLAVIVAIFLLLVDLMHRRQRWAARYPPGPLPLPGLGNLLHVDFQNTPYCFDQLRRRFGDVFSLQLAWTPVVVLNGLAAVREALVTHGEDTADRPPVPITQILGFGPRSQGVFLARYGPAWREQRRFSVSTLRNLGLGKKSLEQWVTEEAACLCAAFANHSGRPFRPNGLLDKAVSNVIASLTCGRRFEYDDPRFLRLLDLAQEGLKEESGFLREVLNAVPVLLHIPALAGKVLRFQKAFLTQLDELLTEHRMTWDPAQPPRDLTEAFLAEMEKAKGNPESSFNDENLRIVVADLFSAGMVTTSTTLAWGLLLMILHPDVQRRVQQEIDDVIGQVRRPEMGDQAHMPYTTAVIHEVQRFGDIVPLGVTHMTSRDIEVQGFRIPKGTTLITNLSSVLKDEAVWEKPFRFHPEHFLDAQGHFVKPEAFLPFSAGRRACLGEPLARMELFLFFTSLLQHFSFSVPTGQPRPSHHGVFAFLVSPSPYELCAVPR

human CYP2C19 = human CYP2C19 (Homo sapiens, UniProt P33261); assay: biochemical
human CYP2C19, sequence (P33261 whole entry): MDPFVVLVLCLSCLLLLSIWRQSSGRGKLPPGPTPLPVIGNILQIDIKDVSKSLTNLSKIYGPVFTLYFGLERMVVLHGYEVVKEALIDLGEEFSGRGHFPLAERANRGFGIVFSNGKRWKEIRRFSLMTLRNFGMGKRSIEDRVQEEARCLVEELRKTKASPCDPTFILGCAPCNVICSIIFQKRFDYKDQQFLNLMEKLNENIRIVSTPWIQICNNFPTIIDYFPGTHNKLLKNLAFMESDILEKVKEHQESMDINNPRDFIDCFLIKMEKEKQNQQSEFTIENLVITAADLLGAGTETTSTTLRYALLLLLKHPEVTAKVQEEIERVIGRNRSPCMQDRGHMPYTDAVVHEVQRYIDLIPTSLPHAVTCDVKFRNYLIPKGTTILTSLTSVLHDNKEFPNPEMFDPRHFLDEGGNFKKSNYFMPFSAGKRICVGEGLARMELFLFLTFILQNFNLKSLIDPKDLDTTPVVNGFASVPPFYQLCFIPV

human CYP2C9 [1] = target: T2, human CYP2C9 (Homo sapiens, UniProt P11712); assay: biochemical
T2 sequence (P11712 whole entry): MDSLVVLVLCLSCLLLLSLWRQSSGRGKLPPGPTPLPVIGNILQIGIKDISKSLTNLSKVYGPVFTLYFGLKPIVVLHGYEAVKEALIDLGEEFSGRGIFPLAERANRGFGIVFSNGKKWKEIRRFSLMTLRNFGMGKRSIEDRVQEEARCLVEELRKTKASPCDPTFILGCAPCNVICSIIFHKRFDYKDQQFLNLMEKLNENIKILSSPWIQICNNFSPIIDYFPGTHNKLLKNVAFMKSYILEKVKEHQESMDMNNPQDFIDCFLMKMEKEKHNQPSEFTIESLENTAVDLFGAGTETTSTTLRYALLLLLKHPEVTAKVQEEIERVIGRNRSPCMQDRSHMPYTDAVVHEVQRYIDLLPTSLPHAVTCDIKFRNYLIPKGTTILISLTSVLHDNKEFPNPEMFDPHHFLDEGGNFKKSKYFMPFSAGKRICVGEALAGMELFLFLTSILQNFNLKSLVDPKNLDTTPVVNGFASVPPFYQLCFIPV

CYP3A4 = CYP3A4 (Homo sapiens, UniProt P08684)
CYP3A4, sequence (P08684 whole entry): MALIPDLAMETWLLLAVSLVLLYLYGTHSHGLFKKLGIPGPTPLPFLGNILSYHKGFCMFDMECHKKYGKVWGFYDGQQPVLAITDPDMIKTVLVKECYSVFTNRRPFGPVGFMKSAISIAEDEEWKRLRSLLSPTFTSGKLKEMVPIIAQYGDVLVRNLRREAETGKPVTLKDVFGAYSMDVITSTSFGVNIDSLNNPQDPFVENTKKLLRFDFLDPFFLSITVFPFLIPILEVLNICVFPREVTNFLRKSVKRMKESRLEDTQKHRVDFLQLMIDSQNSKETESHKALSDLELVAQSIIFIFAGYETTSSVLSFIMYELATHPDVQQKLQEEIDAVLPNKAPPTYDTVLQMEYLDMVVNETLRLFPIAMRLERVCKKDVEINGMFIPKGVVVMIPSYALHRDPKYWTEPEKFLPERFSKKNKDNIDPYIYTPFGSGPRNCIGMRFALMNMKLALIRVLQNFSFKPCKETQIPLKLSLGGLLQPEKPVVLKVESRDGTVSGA

human CYP2C9 [2] = target: T2, human CYP2C9
[3] = target: Photinus pyralis (firefly) luciferase (Photinus pyralis, UniProt P08659); assay: biochemical; assay type: biochemical
Photinus pyralis (firefly) luciferase, sequence (P08659 whole entry): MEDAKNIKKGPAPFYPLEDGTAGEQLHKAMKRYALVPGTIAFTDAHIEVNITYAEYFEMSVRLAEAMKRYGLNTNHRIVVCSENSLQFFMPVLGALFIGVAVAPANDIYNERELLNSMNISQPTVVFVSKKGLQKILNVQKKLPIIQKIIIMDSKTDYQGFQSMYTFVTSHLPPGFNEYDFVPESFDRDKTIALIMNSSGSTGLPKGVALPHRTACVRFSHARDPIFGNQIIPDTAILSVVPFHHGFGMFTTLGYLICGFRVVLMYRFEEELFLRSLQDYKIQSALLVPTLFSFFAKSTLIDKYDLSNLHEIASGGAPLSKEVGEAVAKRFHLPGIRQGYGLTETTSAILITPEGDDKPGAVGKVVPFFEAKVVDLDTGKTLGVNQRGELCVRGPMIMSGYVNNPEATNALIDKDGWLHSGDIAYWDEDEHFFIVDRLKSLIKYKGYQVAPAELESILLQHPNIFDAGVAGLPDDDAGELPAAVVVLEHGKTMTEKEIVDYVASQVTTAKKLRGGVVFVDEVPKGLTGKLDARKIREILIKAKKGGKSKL

[4] = CYP1A2 AC50 (half-maximal activity concentration)
[5] = CYP2C19 AC50 (half-maximal activity concentration)
[6] = CYP2C9 AC50 (half-maximal activity concentration)

Compound: Nc1c(Br)cc([N+](=O)[O-])cc1Br [2,6-Dibromo-4-nitroaniline]
- AC50 (human CYP1A2; [4]): 1.27 µM
- CYP2D6 AC50 (half-maximal activity concentration) (human CYP2D6): Inactive
- AC50 (human CYP2C19; [5]): 43.1 µM
- AC50 (human CYP2C9 [1]; [6]): 18.1 µM
- CYP3A4 AC50 (half-maximal activity concentration) (CYP3A4): Inactive

Compound: CCC(C)c1ccccc1O (centres unmarked) [2-(Butan-2-yl)phenol]
- AC50 (human CYP1A2; [4]): 38.5 µM
- CYP2D6 AC50 (half-maximal activity concentration) (human CYP2D6): Inactive
- AC50 (human CYP2C19; [5]): 9.46 µM
- AC50 (human CYP2C9 [1]; [6]): 53.2 µM
- CYP3A4 AC50 (half-maximal activity concentration) (CYP3A4): Inconclusive inhibitor

Compound: CC(C)c1ccccc1O [2-Isopropylphenol]
- AC50 (human CYP1A2): 47.7 µM
- CYP2D6 AC50 (half-maximal activity concentration) (human CYP2D6): Inactive
- CYP2C9 AC50 (half-maximal activity concentration) (human CYP2C9 [2]): Inactive
- AC50 (human CYP2C19): 9.09 µM
- CYP3A4 AC50 (half-maximal activity concentration) (CYP3A4): Inactive

Compound: O=[N+]([O-])c1ccc(O)cc1C(F)(F)F [3-Trifluoromethyl-4-nitrophenol]
- AC50 (human CYP1A2; [4]): 56.6 µM
- CYP2D6 AC50 (half-maximal activity concentration) (human CYP2D6): Inconclusive inhibitor
- AC50 (human CYP2C19; [5]): 27.9 µM
- AC50 (human CYP2C9 [1]; [6]): 34.1 µM
- CYP3A4 AC50 (half-maximal activity concentration) (CYP3A4): Inconclusive inhibitor

Compound: CCc1cc(Cc2cc(CC)c(N)c(CC)c2)cc(CC)c1N [4,4'-Methylenebis(2,6-diethylaniline)]
- Luciferase IC50 [3]: Inactive

Compound: CCC(C)c1ccc(O)cc1 (centres unmarked) [4-(Butan-2-yl)phenol]
- AC50 (human CYP1A2; [4]): 34.6 µM
- CYP2D6 AC50 (half-maximal activity concentration) (human CYP2D6): Inactive
- AC50 (human CYP2C19; [5]): 3.47 µM
- AC50 (human CYP2C9 [1]; [6]): 33.4 µM
- CYP3A4 AC50 (half-maximal activity concentration) (CYP3A4): Inactive

Compound: CCN(CC)c1ccc(C=O)cc1 [4-(Diethylamino)benzaldehyde]
- AC50 (human CYP1A2): 5.66 µM
- CYP2D6 AC50 (half-maximal activity concentration) (human CYP2D6): Inconclusive inhibitor
- AC50 (human CYP2C19): 14.3 µM
- AC50 (human CYP2C9 [1]): 20.1 µM
- CYP3A4 AC50 (half-maximal activity concentration) (CYP3A4): Inactive

Compound: CC(C)(C)c1ccc(OC(=O)c2ccccc2O)cc1 [4-tert-Butylphenyl salicylate]
- AC50 (human CYP1A2): 40.1 µM
- CYP2D6 AC50 (half-maximal activity concentration) (human CYP2D6): Inactive
- AC50 (human CYP2C19): 14.2 µM
- AC50 (human CYP2C9 [1]): 24.7 µM
- CYP3A4 AC50 (half-maximal activity concentration) (CYP3A4): Inactive

Compound: O=[N+]([O-])c1ccc2c3c(cccc13)CC2 [5-Nitroacenaphthene]
- AC50 (human CYP1A2; [4]): 2.25 µM
- CYP2D6 AC50 (half-maximal activity concentration) (human CYP2D6): Inactive
- AC50 (human CYP2C19; [5]): 33.6 µM
- AC50 (human CYP2C9 [1]; [6]): 8.98 µM
- CYP3A4 AC50 (half-maximal activity concentration) (CYP3A4): Inconclusive inhibitor

Compound: CC(=O)C1(O)CCC2C3CCC4=CC(=O)CCC4(C)C3CCC21C (stereo not drawn) [17alpha-Hydroxyprogesterone]
- Luciferase IC50 (half-maximal inhibitory concentration) [3]: Inactive

Compound: C[C@]12CC[C@@H]3c4ccc(O)cc4CC[C@H]3[C@@H]1CC[C@@H]2O [17beta-Estradiol]
- AC50 (human CYP1A2; [4]): 29.1 µM
- CYP2D6 AC50 (half-maximal activity concentration) (human CYP2D6): Inactive
- AC50 (human CYP2C19; [5]): 16.8 µM
- AC50 (human CYP2C9 [1]; [6]): 5.72 µM
- CYP3A4 AC50 (half-maximal activity concentration) (CYP3A4): Inconclusive activator

Compound: C[C@@H]1CC[C@H]2[C@@H](C)C(=O)O[C@@H]3O[C@@]4(C)CC[C@@H]1[C@]32OO4 [Artemisinin]
- Luciferase IC50 (half-maximal inhibitory concentration) [3]: Inactive

Compound: CCNc1nc(NC(C)C)nc(OC)n1 [Atraton]
- AC50 (human CYP1A2; [4]): 28.4 µM
- CYP2D6 AC50 (half-maximal activity concentration) (human CYP2D6): Inactive
- AC50 (human CYP2C19; [5]): 32.1 µM
- AC50 (human CYP2C9 [1]; [6]): 38.5 µM
- CYP3A4 AC50 (half-maximal activity concentration) (CYP3A4): Inconclusive inhibitor

Compound: CCOC(=O)OC(C)OC(=O)[C@@H]1N2C(=O)[C@@H](NC(=O)[C@H](N)c3ccccc3)[C@H]2SC1(C)C (some centres unmarked) [Bacampicillin hydrochloride]
- Luciferase IC50 (half-maximal inhibitory concentration) [3]: Inactive

Compound: Cc1c(-c2ccc(O)cc2)n(Cc2ccc(OCCN3CCCCCC3)cc2)c2ccc(O)cc12 [Bazedoxifene]
- Luciferase IC50 (half-maximal inhibitory concentration) [3]: Inactive

Compound: [Cl-].c1ccc(C[P+](c2ccccc2)(c2ccccc2)c2ccccc2)cc1 [Benzyltriphenylphosphonium chloride]
- Luciferase IC50 (half-maximal inhibitory concentration) [3]: Inactive

Compound: Nc1c(Cl)cc([N+](=O)[O-])cc1Cl [Dicloran]
- AC50 (human CYP1A2; [4]): 2.84 µM
- CYP2D6 AC50 (half-maximal activity concentration) (human CYP2D6): Inactive
- AC50 (human CYP2C19; [5]): 55.8 µM
- AC50 (human CYP2C9 [1]; [6]): 17.9 µM
- CYP3A4 AC50 (half-maximal activity concentration) (CYP3A4): Inactive

Compound: C[C@]12CC[C@@H]3c4ccc(O)cc4CC[C@H]3[C@@H]1C[C@@H](O)[C@@H]2O [Estriol]
- AC50 (human CYP1A2; [4]): 34.4 µM
- CYP2D6 AC50 (half-maximal activity concentration) (human CYP2D6): Inactive
- AC50 (human CYP2C19; [5]): 31.2 µM
- AC50 (human CYP2C9 [1]; [6]): 21 µM
- CYP3A4 AC50 (half-maximal activity concentration) (CYP3A4): Inactive

Compound: COc1ccc(CCN(C)CCCC(C#N)(c2cc(OC)c(OC)c(OC)c2)C(C)C)cc1OC (centres unmarked) [Gallopamil hydrochloride]
- Luciferase IC50 (half-maximal inhibitory concentration) [3]: Inactive

Compound: COc1ccccc1OC(=O)Oc1ccccc1OC [Guaiacol carbonate]
- AC50 (human CYP1A2): 6.41 µM
- CYP2D6 AC50 (half-maximal activity concentration) (human CYP2D6): Inactive
- AC50 (human CYP2C19): 9.77 µM
- AC50 (human CYP2C9 [1]): 14.9 µM
- CYP3A4 AC50 (half-maximal activity concentration) (CYP3A4): Inactive

Compound: CC(CNC1CCCCC1)OC(=O)c1ccccc1 (centres unmarked) [Hexylcaine hydrochloride]
- Luciferase IC50 (half-maximal inhibitory concentration) [3]: Inactive

Compound: OCCOCCN1CCN(C(c2ccccc2)c2ccc(Cl)cc2)CC1 (centres unmarked) [Hydroxyzine hydrochloride]
- Luciferase IC50 [3]: Inactive
